The record followed here is patent publication US20240025912A1 (Merck Sharp & Dohme LLC, priority 2022, published 2024).

The target of this assay is GST-RIPK1 (recombinant GST-RIPK1 kinase domain (residues 1-327)) (Homo sapiens (Human), UniProt Q13546). Nature of the assay: RIPK1-ADP-Glo Enzymatic Assay. It counts as biochemical. As to conditions: 25 nM GST-RIPK1, 300 μM ATP, 3 μM dephosphorylated-MBP, 30 min pre-incubation, 150 min reaction. Put shortly: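 GST-RIPK1 kinase domain (1-327, Sf21-expressed), 25 nM final, pre-incubated 30 min with compound (1% DMSO), then reacted 150 min with 300 μM ATP and 3 μM dephosphorylated MBP in HEPES pH 7.3/MgCl2 buffer. ADP measured by ADP-Glo luminescence; EC50 from 10-point 1:3 titrations (top 100000 nM), four-parameter fit.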
Sequence of GST-RIPK1 (recombinant GST-RIPK1 kinase domain (residues 1-327)) (Q13546 1-327): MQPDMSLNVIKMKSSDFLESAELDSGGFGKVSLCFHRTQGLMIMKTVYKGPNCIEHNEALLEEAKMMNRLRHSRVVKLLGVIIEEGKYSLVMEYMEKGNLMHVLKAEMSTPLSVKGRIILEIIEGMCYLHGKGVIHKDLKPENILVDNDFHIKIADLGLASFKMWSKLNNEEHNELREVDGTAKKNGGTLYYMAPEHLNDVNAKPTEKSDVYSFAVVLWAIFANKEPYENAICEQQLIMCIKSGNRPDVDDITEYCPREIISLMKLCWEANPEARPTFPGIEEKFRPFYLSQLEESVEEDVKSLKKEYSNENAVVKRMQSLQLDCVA
(In general: ADP-Glo turns the ADP formed in a reaction into a luminescent signal.)
On to `CC(F)(F)C12CC(n3nc4n(c3=O)[C@H](c3cccc(F)c3)CC4)(C1)C2` [Compound 1-34, (5S)-2-[3-(1,1-difluoroethyl)bicyclo[1.1.1]pentan-1-yl]-5-(3-fluorophenyl)-2,5,6,7-tetrahydro-3H-pyrrolo[2,1-c][1,2,4]triazol-3-one], for which the EC50 stood at 26.9 nM.
With `O=c1n(C23CCC(CC2)C3)nc2n1[C@H](c1ccccc1)CC2` [Compound 1-1, (5S)-2-(bicyclo[2.2.1]heptan-1-yl)-5-phenyl-2,5,6,7-tetrahydro-3H-pyrrolo[2,1-c][1,2,4]triazol-3-one] the figure was 21.6 nM; with `N#CC12CC(n3nc4n(c3=O)[C@@H](c3cc(F)cc(F)c3)CS4)(C1)C2` [Compound 1-64, (S)-3-(5-(3,5-difluorophenyl)-3-oxo-5,6-dihydrothiazolo[2,3-c][1,2,4]triazol-2(3H)-yl)bicyclo[1.1.1]pentane-1-carbonitrile], 395 nM; with `N#CC12CC(n3nc4n(c3=O)C(C3CCCCC3)CC4)(C1)C2` (single isomer, unassigned) [Compound 1-55, 3-(5-(S or R)-cyclohexyl-3-oxo-6,7-dihydro-3H-pyrrolo[2,1-c][1,2,4]triazol-2(5H)-yl)bicyclo[1.1.1]pentane-1-carbonitrile], 103 nM.

Usually EC50 stands for the concentration giving half of the maximal effect.
